These are literature values, as cited in patent US20230357868A1 (priority 2021, published 2023).

Each structure is given as a SMILES string.

The test system of series [1] is potato spindle tuber viroid (PSTVd). To be noted: LAMP reaction.
For series [2] the following is noted: LAMP visualization reagent.

As for `CCCN(CCCN(C)C)c1cc(/C=C2/Sc3ccccc3N2C)c2ccccc2[n+]1-c1ccccc1` [SYBR Green I], the Effect on amplification result in series [1] is reported as “Not inhibiting when used 0.5-1x”. For the same compound, the Toxicity result in series [2] is “Mutation enhancer”.

Turning to `O=P([O-])([O-])OP(=O)([O-])[O-].[Mg+2].[Mg+2]` [Mg-pyrophosphate (Mg-PPi)], the Effect on amplification result in series [1] is given as “None”.

Turning to `O=S(=O)([O-])c1ccc2c(N=Nc3c(O)cc(S(=O)(=O)[O-])c4ccccc34)c(O)c(S(=O)(=O)[O-])cc2c1.[Na+].[Na+].[Na+]` [Hydroxynaphthol blue (HNB)], the Effect on amplification result in series [1] is reported as “None”. Also, the Toxicity result in series [2] is “May cause eye irritation”.
